Article PMC9944328 (Nature Communications, 2023)
Where “and” joins values, the source holds several entries; their conditions need not be identical. Identical values can stand only once.

Biological target: SSTR2 (Homo sapiens, UniProt P30874)
Assay: NanoBiT β-arrestin 1 recruitment assay, HEK293 (SSTR2 wild-type);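 on Bottom (best-fit): percent of maximal wild-type response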;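 on Bottom: percent of maximal wild-type response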;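 on Span (best-fit value): percent of maximal wild-type response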;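 on Span (best-fit): percent of maximal wild-type response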;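 on Span: percent of maximal wild-type response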;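 on Top (best-fit value): percent of maximal wild-type response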;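 on Top (best-fit): percent of maximal wild-type response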;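 on Top: percent of maximal wild-type response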
Assay type: cell-based
Parameters: Human full-length SSTR wild-type and mutant vectors were C-terminally fused; expressed in transfected cells; host or cells: HEK293; Best-fit values Bottom / Best-fit values Top / Best-fit values Span / Best-fit Bottom / Best-fit Top / Best-fit Span: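 percent of maximal wild-type response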
Settings: for Span (best-fit value) / Top (best-fit value): β-arrestin1 recruitment
Protocol: The NanoBiT β-arrestin 1 recruitment assays were carried out according to the method described previously. […] Human full-length SSTR wild-type and mutant vectors were C-terminally fused with a 15-amino acid flexible linker and the small fragment (SmBiT). HEK293 cells were seeded into six-well microplates at a density of 1.0 × 10^6 cells/well and cultured for 24 h at 37 °C with 5% CO2. After that, cells were co-transfected with pcDNA3.1+ vectors encoding SSTR wild-type or mutants and human β-arrestin 1. After transfecting for 24 h, the transfected cells were suspended and seeded into white 96-well plates, and then cultured at 37 °C overnight. After that the medium in each well was exchanged for 90 μl of 0.01% bovine serum albumin containing 20 μl of 50 μM coelenterazine h (Carbosynth) diluted in the HBSS assay buffer and incubated for 40 min at room temperature. Then, ligands diluted in the assay buffer was added to each well and the luminescence intensity was measured using the Synergy H1 microplate reader and detected at room temperature in a time period. All data presented are means of at least three independent experiments.

[1] = D122A set WT-3 = Q126A/Y205A set WT-2 = F208A set WT-3
[2] = F127A set WT-1 = I130A set WT-2
[3] = F127A set WT-3 = I130A set WT-1
[4] = Q126A/I130A set WT-3 = F127A set WT-2
[5] = SSTR2 WT-1 (run 1 of WT in the mutant's section)
[6] = SSTR2 WT-2 (run 2 of WT in the mutant's section)
[7] = SSTR2 WT-3 (run 3 of WT in the mutant's section)
[8] = best-fit value, WT-1 (run 1, WT of each mutant's batch)
[9] = best-fit value, WT-2 (run 2, WT of each mutant's batch)
[10] = best-fit value, WT-3 (run 3, WT of each mutant's batch)

SSTR2, sequence (P30874 whole entry): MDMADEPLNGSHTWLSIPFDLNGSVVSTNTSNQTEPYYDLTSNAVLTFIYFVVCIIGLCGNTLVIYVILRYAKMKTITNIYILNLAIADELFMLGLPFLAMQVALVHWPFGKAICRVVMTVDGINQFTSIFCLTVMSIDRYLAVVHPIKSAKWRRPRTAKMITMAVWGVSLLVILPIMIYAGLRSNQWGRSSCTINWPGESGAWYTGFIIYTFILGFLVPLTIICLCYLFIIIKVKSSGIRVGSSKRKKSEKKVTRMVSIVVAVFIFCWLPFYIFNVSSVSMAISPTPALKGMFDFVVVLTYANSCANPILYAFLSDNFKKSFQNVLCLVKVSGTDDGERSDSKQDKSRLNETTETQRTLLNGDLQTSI
SSTR2, sequence (P49407 whole entry partner): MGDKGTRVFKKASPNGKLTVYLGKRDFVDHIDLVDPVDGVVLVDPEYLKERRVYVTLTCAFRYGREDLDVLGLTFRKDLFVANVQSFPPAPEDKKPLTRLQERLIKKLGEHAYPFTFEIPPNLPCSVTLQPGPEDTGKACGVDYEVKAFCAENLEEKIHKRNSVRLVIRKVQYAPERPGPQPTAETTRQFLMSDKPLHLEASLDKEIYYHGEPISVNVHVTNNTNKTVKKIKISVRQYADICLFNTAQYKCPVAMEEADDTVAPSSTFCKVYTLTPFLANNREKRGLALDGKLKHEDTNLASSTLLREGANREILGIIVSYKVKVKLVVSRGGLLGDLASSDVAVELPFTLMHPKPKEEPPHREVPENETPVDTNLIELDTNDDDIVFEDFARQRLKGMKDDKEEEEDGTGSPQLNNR

With `C[C@@H](O)[C@@H]1NC(=O)[C@H](CCCCN)NC(=O)[C@@H](Cc2c[nH]c3ccccc23)NC(=O)[C@H](Cc2ccccc2)NC(=O)[C@@H](NC(=O)[C@H](N)Cc2ccccc2)CSSC[C@@H](C(=O)N[C@H](CO)[C@@H](C)O)NC1=O` [octreotide] the “Bottom (best-fit)” value (D122A set WT-1) was 12.18, the “Span (best-fit)” value (D122A set WT-1) was 93.68 and the “Top (best-fit)” value (D122A set WT-1) was 105.9. For the same molecule, the “Bottom (best-fit)” value (D122A set WT-2) was 4.265, the “Span (best-fit)” value (D122A set WT-2) was 83.04 and the “Top (best-fit)” value (D122A set WT-2) was 87.31. For the same molecule, the “Bottom (best-fit)” value [1] was -0.5169, the “Span (best-fit)” value [1] was 99.09 and the “Top (best-fit)” value [1] was 98.58. For the same molecule, the “Bottom (best-fit)” value [2] was -0.5804, the “Span (best-fit)” value [2] was 101.3 and the “Top (best-fit)” value [2] was 100.7. For the same molecule, the “Bottom (best-fit)” value [3] was -0.2332, the “Span (best-fit)” value [3] was 101 and the “Top (best-fit)” value [3] was 100.8. The “Bottom (best-fit)” value (F208A set WT-1) was -0.7342, the “Span (best-fit)” value (F208A set WT-1) was 99.34 and the “Top (best-fit)” value (F208A set WT-1) was 98.6. The “Bottom (best-fit)” value (F208A set WT-2) was -1.061, the “Span (best-fit)” value (F208A set WT-2) was 99.77 and the “Top (best-fit)” value (F208A set WT-2) was 98.71. For the same molecule, the Emax (HEK293) was 100%, the “Bottom (best-fit)” value (Q126A set WT-1) was -2.277 and the “Span (best-fit)” value (Q126A set WT-1) was 105. The “Top (best-fit)” value (Q126A set WT-1) was 102.7, the “Bottom (best-fit)” value [4] was 0.158 and the “Span (best-fit)” value [4] was 100.8. For the same molecule, the “Top (best-fit)” value [4] was 100.9, the “Span (best-fit value)” value [5] was 93.68 and 99.09 and 83.04 and 90.27 and 99.77 and the “Top (best-fit value)” value [5] was 105.9 and 98.58 and 87.31 and 89.81 and 98.2. For the same molecule, the “Span (best-fit value)” value [6] was 83.04 and 105 and 80.44 and 93.46 and 96.97, the “Top (best-fit value)” value [6] was 87.31 and 102.7 and 85.95 and 93.4 and 96.99 and the “Span (best-fit value)” value [7] was 99.09 and 101.1 and 95.18 and 96.4. The “Top (best-fit value)” value [7] was 98.58 and 97.65 and 95.41 and 96.36, the “Best-fit values Bottom” value (WT-1 (F265A set)) was 0.158 and the “Best-fit values Span” value (WT-1 (F265A set)) was 100.8. The “Best-fit values Top” value (WT-1 (F265A set)) was 100.9, the “Best-fit values Bottom” value (WT-1 (F272A set)) was 4.265 and the “Best-fit values Span” value (WT-1 (F272A set)) was 83.04. For the same molecule, the “Best-fit values Top” value (WT-1 (F272A set)) was 87.31, the “Best-fit values Bottom” value (WT-1 (K291A set)) was 12.18 and the “Best-fit values Bottom” value (WT-1 (N276A set)) was 12.18. The “Best-fit values Span” value (WT-1 (N276A set)) was 93.68, the “Best-fit values Top” value (WT-1 (N276A set)) was 105.9 and the “Best-fit values Bottom” value (WT-1 (P220A set)) was 1.374. The “Best-fit values Span” value (WT-1 (P220A set)) was 94.44, the “Best-fit values Top” value (WT-1 (P220A set)) was 95.82 and the “Best-fit values Bottom” value (WT-1 (W269A set)) was -1.494. For the same molecule, the “Best-fit values Span” value (WT-1 (W269A set)) was 99.94, the “Best-fit values Top” value (WT-1 (W269A set)) was 98.45 and the “Best-fit values Bottom” value (WT-2 (F265A set)) was -0.2332. For the same molecule, the “Best-fit values Span” value (WT-2 (F265A set)) was 101, the “Best-fit values Top” value (WT-2 (F265A set)) was 100.8 and the “Best-fit values Bottom” value (WT-2 (F272A set)) was 12.18. For the same molecule, the “Best-fit values Span” value (WT-2 (F272A set)) was 93.68, the “Best-fit values Top” value (WT-2 (F272A set)) was 105.9 and the “Best-fit values Bottom” value (WT-2 (K291A set)) was 4.265. For the same molecule, the “Best-fit values Bottom” value (WT-2 (N276A set)) was 4.265, the “Best-fit values Span” value (WT-2 (N276A set)) was 83.04 and the “Best-fit values Top” value (WT-2 (N276A set)) was 87.31. The “Best-fit values Bottom” value (WT-2 (P220A set)) was -0.5804, the “Best-fit values Span” value (WT-2 (P220A set)) was 101.3 and the “Best-fit values Top” value (WT-2 (P220A set)) was 100.7. For the same molecule, the “Best-fit values Bottom” value (WT-2 (W269A set)) was 12.18, the “Best-fit values Span” value (WT-2 (W269A set)) was 93.68 and the “Best-fit values Top” value (WT-2 (W269A set)) was 105.9. The “Best-fit values Bottom” value (WT-3 (F265A set)) was -0.5804, the “Best-fit values Span” value (WT-3 (F265A set)) was 101.3 and the “Best-fit values Top” value (WT-3 (F265A set)) was 100.7. The “Best-fit values Bottom” value (WT-3 (F272A set)) was -0.5169, the “Best-fit values Span” value (WT-3 (F272A set)) was 99.09 and the “Best-fit values Top” value (WT-3 (F272A set)) was 98.58. For the same molecule, the “Best-fit values Bottom” value (WT-3 (K291A set)) was -0.5169, the “Best-fit values Bottom” value (WT-3 (N276A set)) was -0.5169 and the “Best-fit values Span” value (WT-3 (N276A set)) was 99.09. The “Best-fit values Top” value (WT-3 (N276A set)) was 98.58, the “Best-fit values Bottom” value (WT-3 (P220A set)) was -0.2332 and the “Best-fit values Span” value (WT-3 (P220A set)) was 101. The “Best-fit values Top” value (WT-3 (P220A set)) was 100.8, the “Best-fit values Bottom” value (WT-3 (W269A set)) was 6.264 and the “Best-fit values Span” value (WT-3 (W269A set)) was 85.81. For the same molecule, the “Best-fit values Top” value (WT-3 (W269A set)) was 92.07, the “Bottom (best-fit)” value (Y205A set WT-1) was -3.442 and the “Span (best-fit)” value (Y205A set WT-1) was 101.1. The “Top (best-fit)” value (Y205A set WT-1) was 97.65, the “Bottom (best-fit)” value (Y205A set WT-3) was 2.142 and the “Span (best-fit)” value (Y205A set WT-3) was 104.5. For the same molecule, the “Top (best-fit)” value (Y205A set WT-3) was 106.6, the Span [8] was 99.09 and 101 and 68.4 and the Top [8] was 98.58 and 100.8 and 104.3. For the same molecule, the Span [9] was 99.09 and 99.34 and 102.9 and 105, the Top [9] was 98.58 and 98.6 and 97.73 and 102.7 and the Span [10] was 99.09 and 99.77 and 100.8 and 101.1. For the same molecule, the Top [10] was 98.58 and 98.71 and 100.9 and 97.65, the Bottom (best-fit, WT-1 (I284A batch)) was 12.18 and the Span (best-fit, WT-1 (I284A batch)) was 93.68. It also gave a Top (best-fit, WT-1 (I284A batch)) of 105.9, a Bottom (best-fit, WT-1 (P286A batch)) of 5.515 and a Span (best-fit, WT-1 (P286A batch)) of 80.44. For the same molecule, the Top (best-fit, WT-1 (P286A batch)) was 85.95, the Bottom (best-fit, WT-1 (S285A batch)) was 6.264 and the Span (best-fit, WT-1 (S285A batch)) was 85.81. It also gave a Top (best-fit, WT-1 (S285A batch)) of 92.07, a Bottom (best-fit, WT-1 (T194A batch)) of -0.5169 and a Top (best-fit, WT-1 (T194A batch)) of 98.58. For the same molecule, the Bottom (best-fit, WT-1 (T287A batch)) was 4.265, the Span (best-fit, WT-1 (T287A batch)) was 83.04 and the Top (best-fit, WT-1 (T287A batch)) was 87.31. It also gave a Bottom (best-fit, WT-1 (W188A batch)) of 6.264, a Span (best-fit, WT-1 (W188A batch)) of 85.81 and a Top (best-fit, WT-1 (W188A batch)) of 92.07. The Bottom (best-fit, WT-2 (I284A batch)) was -1.639, the Span (best-fit, WT-2 (I284A batch)) was 102.1 and the Top (best-fit, WT-2 (I284A batch)) was 100.5. It also gave a Bottom (best-fit, WT-2 (P286A batch)) of 4.265, a Span (best-fit, WT-2 (P286A batch)) of 83.04 and a Top (best-fit, WT-2 (P286A batch)) of 87.31. It also gave a Bottom (best-fit, WT-2 (S285A batch)) of 12.18, a Span (best-fit, WT-2 (S285A batch)) of 93.68 and a Top (best-fit, WT-2 (S285A batch)) of 105.9. It also gave a Bottom (best-fit, WT-2 (T194A batch)) of -0.7342, a Top (best-fit, WT-2 (T194A batch)) of 98.6 and a Bottom (best-fit, WT-2 (T287A batch)) of 5.515. The Span (best-fit, WT-2 (T287A batch)) was 80.44, the Top (best-fit, WT-2 (T287A batch)) was 85.95 and the Bottom (best-fit, WT-2 (W188A batch)) was -0.5169. The Span (best-fit, WT-2 (W188A batch)) was 99.09, the Top (best-fit, WT-2 (W188A batch)) was 98.58 and the Bottom (best-fit, WT-3 (I284A batch)) was 6.264. It also gave a Span (best-fit, WT-3 (I284A batch)) of 85.81, a Top (best-fit, WT-3 (I284A batch)) of 92.07 and a Bottom (best-fit, WT-3 (P286A batch)) of 4.265. The Span (best-fit, WT-3 (P286A batch)) was 83.04, the Top (best-fit, WT-3 (P286A batch)) was 87.31 and the Bottom (best-fit, WT-3 (S285A batch)) was 4.265. The Span (best-fit, WT-3 (S285A batch)) was 83.04, the Top (best-fit, WT-3 (S285A batch)) was 87.31 and the Bottom (best-fit, WT-3 (T194A batch)) was -1.061. The Top (best-fit, WT-3 (T194A batch)) was 98.71, the Bottom (best-fit, WT-3 (T287A batch)) was -0.5169 and the Span (best-fit, WT-3 (T287A batch)) was 99.09. The Top (best-fit, WT-3 (T287A batch)) was 98.58, the Bottom (best-fit, WT-3 (W188A batch)) was 12.18 and the Span (best-fit, WT-3 (W188A batch)) was 93.68. The Top (best-fit, WT-3 (W188A batch)) was 105.9.
